Legend:
FGFR1 kinase = FGFR1 kinase (Homo sapiens (Human), UniProt P11362); assay: Enzymologic experiment of FGFR1 (TR-FRET); format: biochemical; settings: TR-FRET kinase activity
Description: 2. Enzymologic Experiment of FGFR1
In this experiment, the inhibitory effect of the compounds on FGFR1 kinase activity was tested by a fluorescence resonance energy transfer (TR-FRET) method, and the half maximal inhibitory concentration (IC50) of the compounds on the FGFR1 kinase activity was determined.
1) 1˜5 μL of FGFR1 enzymatic solution was added to a 384-well plate, and the final concentration of the enzyme was 0.1˜5 nM.
2) 1˜5 μL of diluted solution in gradient of the compound was added.
3) 1˜5 μL of a substrate mixture containing substrate polypeptide with a final concentration of 5˜50 nM and ATP with a final concentration of 10˜200 μM was added.
(§1) 4) The mixture was incubated for 0.5-3 hours at room temperature.
(§2) 5) 10 μL of EDTA and a test solution comprising labeled antibody were added, and the plate was incubated for 1 hour at room temperature.
(§3) 6) The fluorescence signal values of each plate were determined by a microplate reader at 665 nm.
(§4) 7) The inhibition rates were calculated according to the fluorescence signal values.
The IC50 of the compound was obtained by curve fitting according to the inhibition rates at different concentrations, and the enzymatic activity of the specific example compounds is shown in Table 1.

FGFR4 kinase = FGFR4 kinase (Homo sapiens (Human), UniProt P22455); assay: Enzymologic experiment of FGFR4 (TR-FRET); format: biochemical; settings: TR-FRET kinase activity
Description: 1. Enzymologic Experiment of FGFR4
In this experiment, the inhibitory effect of the compounds on FGFR4 kinase activity was tested by a fluorescence resonance energy transfer (TR-FRET) method, and the half maximal inhibitory concentration (IC50) of the compounds on the FGFR4 kinase activity was determined.
2) 1˜5 μL of diluted solution in gradient of the compound were added.
as §1, §2, §3, §4

[1] = Pharmacokinetic (PK) analysis in rats; format: in vivo, Sprague Dawley (SD) rats; settings: SD rats, single intragastric administration, 5 mg/kg, plasma; for AUC(0-t) / AUC(0-inf) / half-life / MRT / Cmax: Sprague-Dawley, rat, po; for AUC(0-t): read-out: Area Under Curve AUC0-t; for AUC(0-inf): read-out: Area Under Curve AUC0-∞; for half-life: read-out: Half-Time t1/2 (converted); for MRT: read-out: Mean Residence Time MRT; for Cmax: read-out: Plasma Concentration Cmax
Description: 6. Pharmacokinetic (PK) Analysis in Rats
Mode of administration: a single intragastric administration.
Formulation: 0.5% CMC and 1% Tween 80, ultrasonic dissolution.
Sampling points: 0.5, 1, 2, 4, 6, 8 and 24 hours after administration.
1. 1.0 ml of intravenous blood was collected and placed in a K2EDTA test tube.
The blood was centrifuged at room temperature at the speed of 1000˜3000×g for 5˜20 minutes to isolate the plasma, which was then stored at −80° C. 2. 160 μL of acetonitrile were added to 40 μL of plasma sample for precipitation, and then the mixture was centrifuged at the speed of 500˜2000×g for 5˜20 minutes. 3. 100 μL of treated solution were taken, and the concentration of the test compound was analyzed by LC/MS/MS. The LC/MS/MS analytical instrument was AB Sciex API 4000.
Liquid Chromatography Analysis:
Condition of Liquid chromatography: Shimadzu LC-20AD pump
Chromatographic column: phenomenex Gemiu 5 um C18 50×4.6 mm
Mobile phase: Solution A is 0.1% aqueous formic acid solution, and solution B is acetonitrile
Elution time: 0-3.5 minutes, the eluent was as follows:
Mass spectrometry analysis:
Mass spectrometer setup conditions: positive ion electrospray ionization (ESI) mode.

SK-HEP-1 cells = assay: Inhibition of SK-HEP-1 cell proliferation (CellTiter-Glo); format: cell-based; settings: Homo sapiens, SK-HEP1, 72 hours
Description: 5. Experiment on the Inhibition of SK-HEP-1 Cell Proliferation
In this experiment, the inhibitory effect of the compounds on SK-HEP-1 cell proliferation was tested by a CellTiter-Glo method, and the half maximal inhibitory concentration (IC50) of the compounds on the activity of cell proliferation was determined.
1) A 96-well cell culture plate was seeded with 50˜100 μL of SK-HEP-1 cell suspension at a density of 1-5×10^4 cells/ml. The culture plate was incubated in an incubator for 16˜24 hours (37° C., 5% CO2).
(§5) 2) Different concentrations of the test compound in a gradient dilution were added to the cells in the culture plate. The culture plate was incubated in an incubator for 72 hours (37° C., 5% CO2).
(§6) 3) 50˜100 μL of CellTiter-Glo reagent were added to each well. Then, the culture plate was shaken or left to stand for 5˜30 minutes at room temperature.
(§7) 4) The chemiluminescence signal values of each plate were determined by a microplate reader.
(§8) 5) The inhibition rates were calculated according to the chemiluminescence signal values.
The IC50 of the compound was obtained by curve fitting according to the inhibition rates at different concentrations, and the cell activity of the specific Example compounds is shown in Table 2.

Hep 3B cells = assay: Inhibition of Hep 3B cell proliferation (CellTiter-Glo); format: cell-based; settings: Homo sapiens, Hep3B, 72 hours
Description: 3. Experiment on the Inhibition of Hep 3B Cell Proliferation
In this experiment, the inhibitory effect of the compounds on Hep 3B cell proliferation was tested by a CellTiter-Glo method, and the half maximal inhibitory concentration (IC50) of the compounds on the activity of cell proliferation was determined.
1) A 96-well cell culture plate was seeded with 50˜100 μL of Hep 3B cell suspension at a density of 1-5×10^4 cells/ml. The culture plate was incubated in an incubator for 16-24 hours (37° C., 5% CO2).
as §5
3) 50-100 μL of CellTiter-Glo reagent were added to each well. Then, the culture plate was shaken or left to stand for 5˜30 minutes at room temperature.
as §7, §8
6) The IC50 of the compound was obtained by curve fitting according to the inhibition rates at different concentrations, and the cell activity of the specific example compounds is shown in Table 2.

HuH-7 cells = assay: Inhibition of HuH-7 cell proliferation (CellTiter-Glo); format: cell-based; settings: Homo sapiens, 72 hours
Description: 4. Experiment on the Inhibition of HuH-7 Cell Proliferation
In this experiment, the inhibitory effect of the compounds on HuH-7 cell proliferation was tested by a CellTiter-Glo method, and the half maximal inhibitory concentration (IC50) of the compounds on the activity of cell proliferation was determined.
1) A 96-well cell culture plate was seeded with 50˜100 μL of HuH-7 cell suspension at a density of 1-5×10^4 cells/ml. The culture plate was incubated in an incubator for 16˜24 hours (37° C., 5% CO2).
as §5, §6, §7, §8
6) The IC50 of the compound was obtained by curve fitting according to the inhibition rates at different concentrations, and the cell activity of the specific Example compounds is shown in Table 2.

Chain of FGFR1 kinase (P11362 22-822): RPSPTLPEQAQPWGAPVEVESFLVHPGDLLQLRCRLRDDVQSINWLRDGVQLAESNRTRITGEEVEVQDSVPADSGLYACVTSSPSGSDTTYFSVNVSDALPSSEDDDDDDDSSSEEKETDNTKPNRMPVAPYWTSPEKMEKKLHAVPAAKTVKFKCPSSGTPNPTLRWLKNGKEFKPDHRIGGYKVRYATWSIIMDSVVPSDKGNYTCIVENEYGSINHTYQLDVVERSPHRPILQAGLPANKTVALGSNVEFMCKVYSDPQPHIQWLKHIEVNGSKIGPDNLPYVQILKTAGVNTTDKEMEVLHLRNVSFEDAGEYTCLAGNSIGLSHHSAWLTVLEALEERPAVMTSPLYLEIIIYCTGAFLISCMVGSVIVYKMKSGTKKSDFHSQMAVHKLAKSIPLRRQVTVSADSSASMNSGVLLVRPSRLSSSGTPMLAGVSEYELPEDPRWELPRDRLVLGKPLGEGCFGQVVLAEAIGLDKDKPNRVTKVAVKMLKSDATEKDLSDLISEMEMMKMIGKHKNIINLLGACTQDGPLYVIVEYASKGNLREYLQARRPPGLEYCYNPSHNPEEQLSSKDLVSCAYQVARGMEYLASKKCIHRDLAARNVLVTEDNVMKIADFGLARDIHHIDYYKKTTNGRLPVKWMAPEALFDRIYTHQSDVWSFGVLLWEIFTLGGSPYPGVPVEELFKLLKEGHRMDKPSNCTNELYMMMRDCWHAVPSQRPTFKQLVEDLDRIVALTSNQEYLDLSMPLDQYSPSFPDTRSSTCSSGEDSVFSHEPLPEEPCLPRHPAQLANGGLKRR
Chain of FGFR4 kinase (P22455 22-802): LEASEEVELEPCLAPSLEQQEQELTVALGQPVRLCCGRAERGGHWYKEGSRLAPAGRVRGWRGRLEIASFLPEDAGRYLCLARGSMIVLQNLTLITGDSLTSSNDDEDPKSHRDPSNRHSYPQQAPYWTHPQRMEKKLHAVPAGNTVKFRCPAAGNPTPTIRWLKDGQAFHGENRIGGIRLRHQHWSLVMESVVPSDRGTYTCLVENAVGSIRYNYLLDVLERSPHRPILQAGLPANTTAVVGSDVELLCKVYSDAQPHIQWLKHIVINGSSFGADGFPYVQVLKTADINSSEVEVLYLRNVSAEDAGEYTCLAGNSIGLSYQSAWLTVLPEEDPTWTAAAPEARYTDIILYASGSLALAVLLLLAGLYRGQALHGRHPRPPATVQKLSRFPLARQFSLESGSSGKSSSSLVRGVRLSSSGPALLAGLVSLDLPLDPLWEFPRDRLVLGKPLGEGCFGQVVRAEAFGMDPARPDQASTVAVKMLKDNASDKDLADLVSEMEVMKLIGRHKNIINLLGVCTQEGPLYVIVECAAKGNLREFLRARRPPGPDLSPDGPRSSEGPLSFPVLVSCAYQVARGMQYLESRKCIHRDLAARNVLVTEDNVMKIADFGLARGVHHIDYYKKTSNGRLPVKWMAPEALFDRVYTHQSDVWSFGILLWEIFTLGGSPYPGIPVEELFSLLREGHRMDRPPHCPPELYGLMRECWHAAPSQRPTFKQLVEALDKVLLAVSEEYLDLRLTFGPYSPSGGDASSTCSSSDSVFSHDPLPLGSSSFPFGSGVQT

IC50 (FGFR4 kinase)	Structure (SMILES)	IC50 (FGFR1 kinase)	Peak Time tmax [1]	AUC(0-t) [1]	AUC(0-inf) [1]	half-life [1]	MRT [1]	Cmax [1]	IC50 (SK-HEP-1 cells)	IC50 (Hep 3B cells)	IC50 (HuH-7 cells)
4.2 nM	CO[C@@H]1CCN(c2cc(NC(=O)N3CCCc4cc(CN(C)C(=O)[C@H]5CCCO5)c(C=O)nc43)ncc2C#N)C1 [Example 18, N-(5-Cyano-4-((R)-3-methoxypyrrolidin-1-yl)pyridin-2-yl)-7-formyl-6-(((R)—N-methyltetrahydrofuran-2-carboxamido)methyl)-3,4-dihydro-1,8-naphthyridin-1(2H)-carboxamide]	> 10000 nM	–	–	–	–	–	–	–	–	–
1.88 nM	COCCNc1cc(NC(=O)N2CCCc3cc(CN(C)C(=O)[C@H]4CCCN4C(C)=O)c(C=O)nc32)ncc1C#N [Example 10, (R)-6-((1-Acetyl-N-methylpyrrolidin-2-carboxamido)methyl)-N-(5-cyano-4-((2-methoxyethyl)amino)pyridin-2-yl)-7-formyl-3,4-dihydro-1,8-naphthyridin-1(2H)-carboxamide]	> 10000 nM	2 h	5260 ng·h/mL	5340 ng·h/mL	1 h	2.8 h	1960 ng/mL	–	–	–
1.07 nM	COCC(=O)N(C)Cc1cc2c(nc1C=O)N(C(=O)Nc1cc(N[C@@H]3COC[C@H]3OC)c(C#N)cn1)CCC2 (relative stereo) [Example 108, N-(5-Cyano-4-(((trans)-4-methoxytetrahydrofuran-3-yl)amino)pyridin-2-yl)-7-formyl-6-((2-methoxy-N-methylacetamido)methyl)-3,4-dihydro-1,8-naphthyridin-1 (2H)-carboxamide]	> 10000 nM	–	–	–	–	–	–	> 10000 nM	2.5 nM	10 nM
–	CO[C@@H]1CCN(Cc2cc3c(nc2C=O)N(C(=O)Nc2cc(N[C@@H]4CCOC4)c(C#N)cn2)CCC3)C1=O [Example 87, N-(5-Cyano-4-(((R)-tetrahydrofuran-3-yl)amino)pyridin-2-yl)-7-formyl-6-(((R)-3-methoxy-2-carbonylpyrrolidin-1-yl)methyl)-3,4-dihydro-1,8-naphthyridin-1(2H)-carboxamide]	> 10000 nM	2 h	12400 ng·h/mL	14700 ng·h/mL	1.2 h	2.6 h	3360 ng/mL	> 10000 nM	2.2 nM	5.4 nM
–	CO[C@H]1CCN(Cc2cc3c(nc2C=O)N(C(=O)Nc2cc(N[C@@H]4CCOC4)c(C#N)cn2)CCC3)C1=O [Example 85, N-(5-Cyano-4-(((R)-tetrahydrofuran-3-yl)amino)pyridin-2-yl)-7-formyl-6-(((S)-3-methoxy-2-carbonylpyrrolidin-1-yl)methyl)-3,4-dihydro-1,8-naphthyridin-1(2H)-carboxamide]	> 10000 nM	2 h	7280 ng·h/mL	7370 ng·h/mL	0.9 h	3.3 h	2120 ng/mL	> 10000 nM	2.6 nM	4.6 nM
–	COCCNc1cc(NC(=O)N2CCCc3cc(CN(C)C(=O)[C@@H]4CCCO4)c(C=O)nc32)ncc1C#N [Example 2, (S)—N-(5-Cyano-4-((2-methoxyethyl)amino)pyridin-2-yl)-7-formyl-6-((N-methyltetrahydrofuran-2-carboxamido)methyl)-3,4-dihydro-1,8-naphthyridin-1(2H)-carb oxamide]	> 10000 nM	2 h	5820 ng·h/mL	5900 ng·h/mL	1.2 h	2.5 h	2200 ng/mL	> 10000 nM	5.3 nM	5.9 nM
–	CO[C@@H]1CCN(c2cc(NC(=O)N3CCCc4cc(CN5CC[C@H](OC)C5=O)c(C=O)nc43)ncc2C#N)C1 [Example 54, N-(5-Cyano-4-((R)-3-methoxypyrrolidin-1-yl)pyridin-2-yl)-7-formyl-6-(((S)-3-methoxy-2-carbonylpyrrolidin-1-yl)methyl)-3,4-dihydro-1,8-naphthyridin-1(2H)-carboxamide]	> 10000 nM	2 h	7130 ng·h/mL	7870 ng·h/mL	1 h	2.7 h	2870 ng/mL	> 10000 nM	4.4 nM	11.3 nM
–	COCCNc1cc(NC(=O)N2CCCc3cc(CN(C)C(=O)C4COC4)c(C=O)nc32)ncc1C#N [Example 3, N-(5-Cyano-4-((2-methoxyethyl)amino)pyridin-2-yl)-7-formyl-6-((N-methyloxetane-3-carboxamido)methyl)-3,4-dihydro-1,8-naphthyridin-1(2H)-carboxamide]	> 10000 nM	2 h	6350 ng·h/mL	6660 ng·h/mL	1.6 h	3.3 h	2230 ng/mL	> 10000 nM	5.4 nM	38.8 nM
4.54 nM	CN(Cc1cc2c(nc1C=O)N(C(=O)Nc1cc(N(C)C)c(C#N)cn1)CCC2)C(=O)C1CCCO1 (centres unmarked) [Example 4, N-(5-Cyano-4-(dimethylamino)pyridin-2-yl)-7-formyl-6-((N-methyltetrahydrofuran-2-carboxamido)methyl)-3,4-dihydro-1,8-naphthyridin-1(2H)-carboxamide]	> 10000 nM	–	–	–	–	–	–	–	–	–
–	COCCNc1cc(NC(=O)N2CCCc3cc(CN(C)C(=O)C4CCOC4)c(C=O)nc32)ncc1C#N (centres unmarked) [Example 5, N-(5-Cyano-4-((2-methoxyethyl)amino)pyridin-2-yl)-7-formyl-6-((N-methyltetrahydrofuran-3-carboxamido)methyl)-3,4-dihydro-1,8-naphthyridin-1(2H)-carboxamide]	> 10000 nM	2 h	13000 ng·h/mL	13400 ng·h/mL	1.2 h	3.2 h	3570 ng/mL	> 10000 nM	9.1 nM	31.7 nM

Reference: US11608332B2, “FGFR4 inhibitor and preparation method and use thereof” (Jiangsu Hansoh Pharmaceutical Group Co., Ltd., priority 2016, dated 2023)
